Drawing on patent US9394264B2 (Receptos, Inc., priority 2009, dated 2016), this text covers EC50 for 6 compounds.

Read-outs that look alike come from different tables or passages of the source. A value given as a limit tells only on which side of the number the result lay.

Type in all cases: cell-based
One assay deals with T1, S1P3 (Homo sapiens, UniProt Q99500).
T1 construct: host or cells: NFAT-bla HEK293T
Nature of the assay: Specificity over other S1P receptors: S1P3-Gα15 NFAT-bla HEK293T. The conditions noted are these: without Forskolin, read-out: S1P3 agonist value (EC50). The protocol: (§1) Cells were seeded into 384-well black wall/clear bottom plates at 10^4 cells/well/19.5 μl assay media (DMEM-phenol free, 0.5% charcoal/dextran stripped serum, 2 mM glutamine, 0.1 mM NEAA, 1 mM Na-Pyruvate, 25 mM Hepes) and incubated for 18 hrs at 37° C. in 5% CO2. Dose response curves (10-point) were generated in 10 mM Hepes, 0.1% Pluronic F127, in the presence of Forskolin. Cells were treated with 0.5 μl compound in the presence of 2 μM Forskolin for 4 hrs at 37° C. The FRET-based β-lactamase fluorescent substrate (LiveBLAzer™-FRET B/G Loading Kit CC4-AM; Invitrogen) was prepared according to manufacturer's directions, and incubated with cells for 2 hrs at room temperature. Plates were read at Ex:410/Em:458 and Ex:410/Em:522, and the response ratio determined. Data was analyzed by non-linear regression to determine the EC50 for inhibition of Forskolin induced cAMP.
(§2) To assess compound specificity on other S1P receptors the following cell lines were used: S1P2 CRE-bla CHOK1, S1P3-Gα15 NFAT-bla HEK293T (Invitrogen), S1P4-bla TANGO U2OS (Invitrogen), S1P5-bla TANGO U2OS (Invitrogen). The same assay set up for S1P1 was used but without Forskolin. S1P4 and S1P5 assays were performed in FreeStyle Expression medium (Invitrogen). S1P5 cells were incubated for 48 hrs in prior to treatment with compound.

In a further assay the target is T2, S1P5 (Homo sapiens, UniProt Q9H228).
T2 construct: Tango fusion (C); host or cells: U2OS (Tango, bla reporter)
The assay can be described thus: Specificity over other S1P receptors: S1P5-bla TANGO U2OS. The conditions noted are these: without Forskolin, read-out: S1P5 agonist value (EC50). As for the experimental part:
as §1, §2

In the next assay the target is S1P1/EDG1 (Homo sapiens, UniProt P21453). Nature of the assay: S1P1 CRE-bla CHOK1 reporter assay (inhibition of Forskolin induced cAMP). The conditions noted are these: S1P1 CRE-bla CHOK1 cells, 2 μM Forskolin.
Excerpt: A mammalian expression plasmid containing S1P1/EDG1 cloned into pcDNA3.1 was purchased from Missouri S&T cDNA Resource Centre. The nucleotide and amino acid sequence of human S1P1/EDG1 are published in Hla and Maciag (J Biol Chem, 265(1990), 9308-9313). S1P1/pcDNA3.1 was transfected into the CRE-bla CHO K1 (Invitrogen) cell line, and stable single cell clones were selected using standard techniques. Expression of functional S1P1/EDG1 receptor was confirmed by cell surface FACS with a S1P1 antibody (R&D Systems, clone 218713) and S1P-mediated inhibition of Forskolin induced cAMP.
as §1
A general note: In a reporter assay the amount or activity of a reporter protein is the signal.

The next assay deals with T3, S1P4 (Homo sapiens, UniProt O95977).
T3 construct: Tango fusion (C); host or cells: U2OS (Tango, bla reporter)
T3 sequence (O95977 1-384): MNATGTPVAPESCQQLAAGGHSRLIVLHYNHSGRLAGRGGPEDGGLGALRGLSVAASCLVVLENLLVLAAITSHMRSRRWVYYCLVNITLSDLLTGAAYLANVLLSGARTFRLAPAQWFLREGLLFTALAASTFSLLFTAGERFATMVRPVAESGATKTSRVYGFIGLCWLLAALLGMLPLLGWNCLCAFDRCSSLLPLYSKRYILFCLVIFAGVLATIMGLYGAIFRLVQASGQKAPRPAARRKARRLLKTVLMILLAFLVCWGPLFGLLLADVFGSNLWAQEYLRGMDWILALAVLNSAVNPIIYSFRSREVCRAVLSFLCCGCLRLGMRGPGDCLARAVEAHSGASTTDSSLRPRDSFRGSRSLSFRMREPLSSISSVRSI
Nature of the assay: Specificity over other S1P receptors: S1P4-bla TANGO U2OS. Particulars: without Forskolin, read-out: S1P4 agonist value (EC50). As for the experimental part: as §1, §2

The target of another assay is T4, S1P2 (Homo sapiens, UniProt O95136).
T4 construct: expressed in transfected cells; host or cells: CRE-bla CHOK1
The assay can be described thus: Specificity over other S1P receptors: S1P2 CRE-bla CHOK1. Particulars: S1P2 CRE-bla CHOK1, without Forskolin; read-out: S1P2 agonist value (EC50). The protocol:
as §1, §2

Where [1] appears, read: read-out: S1P1 agonist value (EC50).
The mark [2] stands for this setting: agonist activity range, read-out: S1P1 ACTIVITY

T1 sequence (Q99500 whole entry): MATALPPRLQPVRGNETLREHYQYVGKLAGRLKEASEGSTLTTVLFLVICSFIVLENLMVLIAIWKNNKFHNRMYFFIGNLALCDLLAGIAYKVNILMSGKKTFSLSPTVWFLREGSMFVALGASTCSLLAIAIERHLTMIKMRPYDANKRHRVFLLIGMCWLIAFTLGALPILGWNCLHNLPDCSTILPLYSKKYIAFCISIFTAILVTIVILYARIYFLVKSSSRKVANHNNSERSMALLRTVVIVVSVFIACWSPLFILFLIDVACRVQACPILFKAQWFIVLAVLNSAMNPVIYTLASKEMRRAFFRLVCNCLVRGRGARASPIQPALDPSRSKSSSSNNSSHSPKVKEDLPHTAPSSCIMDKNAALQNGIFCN
Chain of S1P1/EDG1 (P21453 whole entry): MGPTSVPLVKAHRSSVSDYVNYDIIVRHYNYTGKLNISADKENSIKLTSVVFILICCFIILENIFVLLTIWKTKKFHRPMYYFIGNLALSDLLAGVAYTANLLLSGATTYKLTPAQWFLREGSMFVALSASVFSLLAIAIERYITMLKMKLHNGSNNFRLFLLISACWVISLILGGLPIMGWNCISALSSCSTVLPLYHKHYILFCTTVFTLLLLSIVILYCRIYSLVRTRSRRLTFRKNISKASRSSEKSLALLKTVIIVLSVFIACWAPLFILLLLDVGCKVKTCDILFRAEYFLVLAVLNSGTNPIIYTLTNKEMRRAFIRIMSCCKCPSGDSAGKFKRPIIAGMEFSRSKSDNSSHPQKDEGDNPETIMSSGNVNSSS
T2 sequence (Q9H228 whole entry, the tested form may be a part): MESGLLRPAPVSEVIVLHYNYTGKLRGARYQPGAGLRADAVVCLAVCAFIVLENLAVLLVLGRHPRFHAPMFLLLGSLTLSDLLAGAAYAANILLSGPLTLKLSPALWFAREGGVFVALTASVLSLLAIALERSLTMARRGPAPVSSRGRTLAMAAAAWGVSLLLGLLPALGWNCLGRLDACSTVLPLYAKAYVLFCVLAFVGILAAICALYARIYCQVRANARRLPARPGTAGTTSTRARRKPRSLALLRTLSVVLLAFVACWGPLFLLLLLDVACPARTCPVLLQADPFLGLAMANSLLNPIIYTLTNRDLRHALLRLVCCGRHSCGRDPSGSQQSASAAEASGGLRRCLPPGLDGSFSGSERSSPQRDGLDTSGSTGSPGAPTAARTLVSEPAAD
T4 sequence (O95136 whole entry, species assumed): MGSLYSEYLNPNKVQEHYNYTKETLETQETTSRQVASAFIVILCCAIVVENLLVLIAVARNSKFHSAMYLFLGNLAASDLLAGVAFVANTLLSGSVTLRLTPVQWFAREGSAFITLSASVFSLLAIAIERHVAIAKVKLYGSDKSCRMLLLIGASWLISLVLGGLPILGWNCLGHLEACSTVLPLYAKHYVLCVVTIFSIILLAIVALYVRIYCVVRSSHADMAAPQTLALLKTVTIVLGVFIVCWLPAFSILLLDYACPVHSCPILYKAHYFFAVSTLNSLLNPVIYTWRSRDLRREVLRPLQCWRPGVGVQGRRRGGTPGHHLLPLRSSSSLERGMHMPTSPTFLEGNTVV

Take `CC(C)Oc1ccc(-c2nc(-c3cccc4c3CCC[C@@H]4NC(=O)N3CC(O)C3)no2)cc1C#N` [Compound 8, (S)-N-(5-(5-(3-cyano-4-isopropoxyphenyl)-1,2,4-oxadiazol-3-yl)-1,2,3,4-tetrahydronaphthalen-1-yl)-3-hydroxyazetidine-1-carboxamide]: the EC50 on S1P3 was above 10000 nM; on S1P5, 109 nM; at S1P1/EDG1 (setting [1]), 0.143 nM; on S1P1/EDG1 (setting [2]), 0.05 to 0.5 nM; on S1P4, above 10000 nM; at S1P2 it was above 10000 nM.
`CC(C)Oc1ccc(-c2nc(-c3cccc4c3CCC[C@H]4NC(=O)N3CC[C@H](O)C3)no2)cc1C#N` [Compound 13]: the EC50 on S1P3 is above 10000 nM; on S1P5, 77 nM; on S1P1/EDG1 (setting [1]), 0.1 nM; on S1P1/EDG1 (setting [2]), 0.05 to 0.5 nM; at S1P4 it was above 10000 nM; at S1P2 it was above 10000 nM.
Regarding `CC(C)Oc1ccc(-c2nc(-c3cccc4c3CCC[C@@H]4NS(C)(=O)=O)no2)cc1C#N` [Compound 29, (S)-N-(5-(5-(3-cyano-4-isopropoxyphenyl)-1,2,4-oxadiazol-3-yl)-1,2,3,4-tetrahydronaphthalen-1-yl)methanesulfonamide], the EC50 on S1P3 is above 10000 nM; at S1P5, 37.8 nM; at S1P1/EDG1 (setting [1]), 0.065 nM; on S1P1/EDG1 (setting [2]) it was 0.05 to 0.5 nM; on S1P4, above 10000 nM; on S1P2 it was above 10000 nM.
For the compound `COCCS(=O)(=O)N[C@H]1CCCc2c(-c3noc(-c4ccc(OC(C)C)c(C#N)c4)n3)cccc21` [Compound 33, (S)-N-(5-(5-(3-cyano-4-isopropoxyphenyl)-1,2,4-oxadiazol-3-yl)-1,2,3,4-tetrahydronaphthalen-1-yl)-2-methoxyethanesulfonamide], the EC50 was above 10000 nM at S1P3; 260 nM at S1P5; 0.192 nM at S1P1/EDG1 (setting [1]); 0.05 to 0.5 nM on S1P1/EDG1 (setting [2]); 617 nM on S1P4; above 10000 nM on S1P2.
Take `CC(C)Oc1ccc(-c2nc(-c3cccc4c3CCC[C@H]4NS(=O)(=O)CCO)no2)cc1C#N` [Compound 37, (R)-N-(5-(5-(3-cyano-4-isopropoxyphenyl)-1,2,4-oxadiazol-3-yl)-1,2,3,4-tetrahydronaphthalen-1-yl)-2-hydroxyethanesulfonamide]: the EC50 on S1P3 is above 10000 nM; at S1P5, 3.5 nM; on S1P1/EDG1 (setting [1]), 0.024 nM; on S1P1/EDG1 (setting [2]), below 0.05 nM; at S1P4 it was 879 nM; on S1P2, 1440 nM.
In the case of `CC(C)Oc1ccc(-c2nc(-c3cccc4c3CCC[C@@H]4NCCS(C)(=O)=O)no2)cc1C#N` [Compound 49, (S)-2-isopropoxy-5-(3-(5-((42-(methylsulfonyl)ethyl)amino)-5,6,7,8-tetrahydronaphthalen-1-yl)-1,2,4-oxadiazol-5-yl)benzonitrile], the EC50 on S1P3 was above 10000 nM; on S1P5, 94.6 nM; on S1P1/EDG1 (setting [1]), 0.104 nM; at S1P1/EDG1 (setting [2]), 0.05 to 0.5 nM; at S1P4 it was above 10000 nM; on S1P2, above 10000 nM.
